In patent publication US8450361B2, “Substituted indole and azaindole oxoacetyl piperazinamide derivatives” (priority 2010, dated 2013):

Tested on: HIV-1
Assay: Single-round infectious HIV-1 luciferase reporter virus infection of HeLa CD4 cells
Type: cell-based
Conditions: Human immunodeficiency virus 1, HeLa, 72 h, read-out: EC50 Group from Table 1
Experimental: • Virus production—Human embryonic Kidney cell line, 293T, was propagated in Dulbecco's Modified Eagle Medium (Invitrogen, Carlsbad, Calif.) containing 10% fetal Bovine serum (FBS, Sigma, St. Louis, Mo.). • Virus infection—Human epithelial cell line, HeLa, expressing the HIV-1 receptor CD4 was propagated in Dulbecco's Modified Eagle Medium (Invitrogen, Carlsbad, Calif.) containing 10% fetal Bovine serum (FBS, Sigma, St. Louis, Mo.) and supplemented with 0.2 mg/mL Geneticin (Invitrogen, Carlsbad, Calif.). Virus—Single-round infectious reporter virus was produced by co-transfecting human embryonic Kidney 293 cells with an HIV-1 envelope DNA expression vector and a proviral cDNA containing an envelope deletion mutation and the luciferase reporter gene inserted in place of HIV-1 nef sequences (Chen et al, Ref 41). Transfections were performed using lipofectAMINE PLUS reagent as described by the manufacturer (Invitrogen, Carlsbad, Calif.). Experiment • 1. HeLa CD4 cells were plated in 96 well plates at a cell density of 1×10^4 cells per well in 100 μl Dulbecco's Modified Eagle Medium containing 10% fetal Bovine serum and incubated overnight. • 2. Compound was added in a 2 μl dimethylsulfoxide solution, so that the final assay concentration would be ≦10 μM. • 3. 100 μl of single-round infectious reporter virus in Dulbecco's Modified Eagle Medium was then added to the plated cells and compound at an approximate multiplicity of infection (MOI) of 0.01, resulting in a final volume of 200 μl per well. • 4. Virally-infected cells were incubated at 37 degrees Celsius, in a CO2 incubator, and harvested 72 h after infection. • 5. Viral infection was monitored by measuring luciferase expression from viral DNA in the infected cells using a luciferase reporter gene assay kit, as described by the manufacturer (Roche Molecular Biochemicals, Indianapolis, Ind.). Infected cell supernatants were removed and 50 μl of lysis buffer was added per well. After 15 minutes, 50 μl of freshly-reconstituted luciferase assay reagent was added per well. Luciferase activity was then quantified by measuring luminescence using a Wallac microbeta scintillation counter. • 6. The percent inhibition for each compound was calculated by quantifying the level of luciferase expression in cells infected in the presence of each compound as a percentage of that observed for cells infected in the absence of compound and subtracting such a determined value from 100. • 7. An EC50 provides a method for comparing the antiviral potency of the compounds of this invention. The effective concentration for fifty percent inhibition (EC50) was calculated with the Microsoft Excel Xlfit curve fitting software. For each compound, curves were generated from percent inhibition calculated at 10 different concentrations by using a four parameter logistic model (model 205). Table 1 is the key for the data in Table 2. Results

| SMILES | EC50 |
| --- | --- |
| C[C@@H]1CN(C(=O)c2ccccc2)CCN1C(=O)C(=O)c1c[nH]c2c(NC(=O)NCCCCCC(=O)O)cccc12 [P-I-6] | < 1 µM |
| C[C@@H]1CN(C(=O)c2ccccc2)CCN1C(=O)C(=O)c1c[nH]c2c(NC(=O)c3ccno3)cccc12 [P-A-21] | < 1 µM |
| C[C@@H]1CN(C(=O)c2ccccc2)CCN1C(=O)C(=O)c1c[nH]c2c(NC(=O)Nc3ccc(C#N)cc3)cccc12 [P-C-22] | < 1 µM |
| C[C@@H]1CN(C(=O)c2ccccc2)CCN1C(=O)C(=O)c1c[nH]c2c(NS(=O)(=O)N(C)C)cccc12 [P-E-5] | < 1 µM |
| C[C@@H]1CN(C(=O)c2ccccc2)CCN1C(=O)C(=O)c1c[nH]c2c(NC(=O)NCCCCNC(=O)Nc3cccc(B(O)O)c3)cccc12 [P-C-112] | < 1 µM |
| CC(=O)Nc1ccc(F)c2c(C(=O)C(=O)N3CCC(=C(C#N)c4ccncc4)CC3)c[nH]c12 [P-B-6] | < 1 µM |
| COC(=O)C(O)C(O)C(=O)Nc1cccc2c(C(=O)C(=O)N3CCN(C(=O)c4ccccc4)C[C@H]3C)c[nH]c12 (stereo partly shown) [P-A-17] | < 1 µM |
| N#CC(=C1CCN(C(=O)C(=O)c2c[nH]c3c(NC(=O)Nc4cccc(C(=O)O)c4)cccc23)CC1)c1ccccc1 [P-I-12] | < 1 µM |
| CC1NC(=O)N(c2cccc3c(C(=O)C(=O)N4CCN(C(=O)c5ccccc5)C[C@H]4C)c[nH]c23)C1=O (stereo partly shown) [P-G-2] | < 1 µM |
| CC(C)COC(=O)Nc1cccc2c(C(=O)C(=O)N3CCN(C(=O)c4ccccc4)C[C@H]3C)c[nH]c12 [P-D-1] | < 1 µM |
| N#CC(=C1CCN(C(=O)C(=O)c2c[nH]c3c(NC(=O)Nc4ccc(S(=O)(=O)O)cc4)cccc23)CC1)c1ccccc1 [P-C-20] | < 1 µM |
| CCN(CC)S(=O)(=O)c1ccc(NC(=O)Nc2cccc3c(C(=O)C(=O)N4CCC(=C(C#N)c5ccccc5)CC4)c[nH]c23)cc1 [P-C-21] | < 1 µM |
| CCOC(=O)c1ccccc1NC(=O)Nc1cccc2c(C(=O)C(=O)N3CCN(C(=O)c4ccccc4)C[C@H]3C)c[nH]c12 [P-C-10] | < 1 µM |
| CC(=O)Nc1ccc(F)c2c(C(=O)C(=O)N3CCC(=C(C#N)c4cccnc4)CC3)c[nH]c12 [P-B-5] | < 1 µM |
| C[C@@H]1CN(C(=O)c2ccccc2)CCN1C(=O)C(=O)c1c[nH]c2c(NC(=O)NCCCCCCCCNC(=O)Nc3cccc(B(O)O)c3)cccc12 [P-C-114] | < 1 µM |
| C[C@@H]1CN(C(=O)c2ccccc2)CCN1C(=O)C(=O)c1c[nH]c2c(N3CCN(CCCl)C3=O)cccc12 [P-G-1] | < 1 µM |
| CC(=O)Nc1ccc(F)c2c(C(=O)C(=O)N3CC/C(=C(\C#N)c4ccccc4)CC3C)c[nH]c12 (stereo not shown) [P-B-3] | < 1 µM |
| N#CC(=C1CCN(C(=O)C(=O)c2c[nH]c3c(N4C(=O)N[C@@H](CCC(=O)O)C4=O)cccc23)CC1)c1ccccc1 [P-I-17] | < 1 µM |
| C[C@@H]1CN(C(=O)c2ccccc2)CCN1C(=O)C(=O)c1c[nH]c2c(NC(=O)CN(C)C)cccc12 [P-A-3] | < 1 µM |
| COS(=O)(=O)c1ccc(NC(=O)Nc2cccc3c(C(=O)C(=O)N4CCC(=C(C#N)c5ccccc5)CC4)c[nH]c23)cc1 [P-C-18] | < 1 µM |
| C[C@@H]1CN(C(=O)c2ccccc2)CCN1C(=O)C(=O)c1c[nH]c2c(NS(C)(=O)=O)cccc12 [P-E-1] | < 1 µM |
| CCOC(=O)c1cccc(NC(=O)Nc2cccc3c(C(=O)C(=O)N4CCC(=C(C#N)c5ccccc5)CC4)c[nH]c23)c1 [P-C-13] | < 1 µM |
| N#CC(=C1CCN(C(=O)C(=O)c2c[nH]c3c(NC(=O)Nc4cc(C(=O)O)cc(C(=O)O)c4)cccc23)CC1)c1ccccc1 [P-I-15] | < 1 µM |
| Cc1ccc(S(=O)(=O)Nc2cccc3c(C(=O)C(=O)N4CCN(C(=O)c5ccccc5)C[C@H]4C)c[nH]c23)cc1 [P-E-3] | 1 to 5 µM |
| CC(C)/N=C(/Nc1cccc2c(C(=O)C(=O)N3CCN(C(=O)c4ccccc4)C[C@H]3C)c[nH]c12)NC(C)C [P-F-1] | < 1 µM |
| N#CC(=C1CCN(C(=O)C(=O)c2c[nH]c3c(NC(=O)NCCCC(=O)O)cccc23)CC1)c1ccccc1 [P-I-5] | < 1 µM |
| CC(=O)Nc1cccc2c(C(=O)C(=O)N3CCN(C(=O)c4ccccc4)C[C@H]3C)c[nH]c12 [P-A-5] | < 1 µM |
| C[C@@H]1CN(C(=O)c2ccccc2)CCN1C(=O)C(=O)c1c[nH]c2c(NC(=O)NCCC(=O)O)cccc12 [P-I-2] | < 1 µM |

| SMILES | EC50 |
| --- | --- |
| N#CC(=C1CCN(C(=O)C(=O)c2c[nH]c3c(NC(=O)Nc4ccc(C(=O)O)cc4)cccc23)CC1)c1ccccc1 [P-I-13] | < 1 µM |
| C[C@@H]1CN(C(=O)c2ccccc2)CCN1C(=O)C(=O)c1cn(S(C)(=O)=O)c2c(NS(C)(=O)=O)cccc12 [P-E-2] | < 1 µM |
| CCOC(=O)c1cccc(NC(=O)Nc2cccc3c(C(=O)C(=O)N4CCN(C(=O)c5ccccc5)C[C@H]4C)c[nH]c23)c1 [P-C-12] | < 1 µM |
| CCOC(=O)c1ccc(NC(=O)Nc2cccc3c(C(=O)C(=O)N4CCN(C(=O)c5ccccc5)C[C@H]4C)c[nH]c23)cc1 [P-C-14] | < 1 µM |
| Cc1ccc(S(=O)(=O)Nc2cccc3c(C(=O)C(=O)N4CCN(C(=O)c5ccccc5)C[C@H]4C)cn(S(=O)(=O)c4ccc(C)cc4)c23)cc1 [P-E-4] | < 1 µM |
| CCOC(=O)CNC(=O)Nc1cccc2c(C(=O)C(=O)N3CCN(C(=O)c4ccccc4)C[C@H]3C)c[nH]c12 [P-C-1] | < 1 µM |
| COC(=O)CCC(=O)Nc1cccc2c(C(=O)C(=O)N3CCN(C(=O)c4ccccc4)C[C@H]3C)c[nH]c12 [P-A-7] | < 1 µM |
| CCOC(=O)c1ccc(NC(=O)Nc2cccc3c(C(=O)C(=O)N4CCC(=C(C#N)c5ccccc5)CC4)c[nH]c23)cc1 [P-C-15] | < 1 µM |
| N#CC(=C1CCN(C(=O)C(=O)c2c[nH]c3c(NC(=O)Nc4ccc(C#N)cc4)cccc23)CC1)c1ccccc1 [P-C-23] | < 1 µM |
| COC(=O)c1ccccc1NC(=O)Nc1cccc2c(C(=O)C(=O)N3CCN(C(=O)c4ccccc4)C[C@H]3C)c[nH]c12 [P-C-9] | < 1 µM |
| C[C@@H]1CN(C(=O)c2ccccc2)CCN1C(=O)C(=O)c1c[nH]c2c(NC(=O)NCCOCCOCCNC(=O)c3ccc(B(O)O)cc3)cccc12 [P-C-402] | < 1 µM |
| CNCCCN(C)CCN1CCN(c2cccc3c(C(=O)C(=O)N4CCN(C(=O)c5ccccc5)C[C@H]4C)c[nH]c23)C1=O [P-H-3] | < 1 µM |
| C[C@@H]1CN(C(=O)c2ccccc2)CCN1C(=O)C(=O)c1c[nH]c2c(N3CCN(CCN(C)C)C3=O)cccc12 [P-H-2] | < 1 µM |
| C[C@@H]1CN(C(=O)c2ccccc2)CCN1C(=O)C(=O)c1c[nH]c2c(NC(=O)Nc3cc(C(=O)O)cc(C(=O)O)c3)cccc12 [P-I-14] | < 1 µM |
| C[C@@H]1CN(C(=O)c2ccccc2)CCN1C(=O)C(=O)c1c[nH]c2c(NC(=O)NCCCCCCNC(=O)NCCOCCOCCN)cccc12 [P-C-111] | < 1 µM |
| C[C@@H]1CN(C(=O)c2ccccc2)CCN1C(=O)C(=O)c1c[nH]c2c(NC(=O)c3ccccn3)cccc12 [P-A-20] | < 1 µM |
| CCOC(=O)CC[C@@H]1NC(=O)N(c2cccc3c(C(=O)C(=O)N4CCC(=C(C#N)c5ccccc5)CC4)c[nH]c23)C1=O [P-G-3] | < 1 µM |
| CC(=O)Nc1ccc(F)c2c(C(=O)C(=O)N3CCC(=C(C#N)c4ccccc4)CC3)c[nH]c12 [P-B-4] | < 1 µM |
| CCOC(=O)CCCCCNC(=O)Nc1cccc2c(C(=O)C(=O)N3CCN(C(=O)c4ccccc4)C[C@H]3C)c[nH]c12 [P-C-7] | < 1 µM |
| C[C@@H]1CN(C(=O)c2ccccc2)CCN1C(=O)C(=O)c1c[nH]c2c(NC(=O)NCCCCCCNC(=O)Nc3cccc(B(O)O)c3)cccc12 [P-C-113] | < 1 µM |
| COC(=O)[C@@H]1OC(C)(C)O[C@H]1C(=O)Nc1cccc2c(C(=O)C(=O)N3CCN(C(=O)c4ccccc4)C[C@H]3C)c[nH]c12 [P-A-15] | < 1 µM |
| C[C@@H]1CN(C(=O)c2ccccc2)CCN1C(=O)C(=O)c1c[nH]c2c(NC(=O)/C=C/C(=O)O)cccc12 [P-A-9] | < 1 µM |
| N#CC(=C1CCN(C(=O)C(=O)c2c[nH]c3c(NC(=O)Nc4ccccc4C(=O)O)cccc23)CC1)c1ccccc1 [P-I-10] | < 1 µM |
| C[C@@H]1CN(C(=O)c2ccccc2)CCN1C(=O)C(=O)c1c[nH]c2c(NC(=O)NC3CCN(C(=O)C(F)(F)F)CC3)cccc12 [P-C-24] | < 1 µM |
| N#CC(=C1CCN(C(=O)C(=O)c2c[nH]c3c(NC(=O)NCCCCCC(=O)O)cccc23)CC1)c1ccccc1 [P-I-7] | < 1 µM |
| C[C@@H]1CN(C(=O)c2ccccc2)CCN1C(=O)C(=O)c1c[nH]c2c(NC(=O)NCCOCCOCCN)cccc12 [P-C-205] | < 1 µM |
| C[C@@H]1CN(C(=O)c2ccccc2)CCN1C(=O)C(=O)c1c[nH]c2c(NC(=O)Nc3cccc(B(O)O)c3)cccc12 [P-C-202] | < 1 µM |
